Calls of active or inactive are those of the source.
Experiments:
[1] = target: T1, Long-chain-fatty-acid--AMP ligase FadD28 (Mycobacterium tuberculosis, UniProt P9WQ59); assay: Fluorescence polarization aasay to screen for inhibitors that compete for the binding of FadD28 to a bisubstrate Measured in Biochemical System Using Plate Reader - 2147-01_Inhibitor_Dose_CherryPick_Activity.; type: functional, Mycobacterium tuberculosis H37Rv
T1 sequence (P9WQ59 whole entry): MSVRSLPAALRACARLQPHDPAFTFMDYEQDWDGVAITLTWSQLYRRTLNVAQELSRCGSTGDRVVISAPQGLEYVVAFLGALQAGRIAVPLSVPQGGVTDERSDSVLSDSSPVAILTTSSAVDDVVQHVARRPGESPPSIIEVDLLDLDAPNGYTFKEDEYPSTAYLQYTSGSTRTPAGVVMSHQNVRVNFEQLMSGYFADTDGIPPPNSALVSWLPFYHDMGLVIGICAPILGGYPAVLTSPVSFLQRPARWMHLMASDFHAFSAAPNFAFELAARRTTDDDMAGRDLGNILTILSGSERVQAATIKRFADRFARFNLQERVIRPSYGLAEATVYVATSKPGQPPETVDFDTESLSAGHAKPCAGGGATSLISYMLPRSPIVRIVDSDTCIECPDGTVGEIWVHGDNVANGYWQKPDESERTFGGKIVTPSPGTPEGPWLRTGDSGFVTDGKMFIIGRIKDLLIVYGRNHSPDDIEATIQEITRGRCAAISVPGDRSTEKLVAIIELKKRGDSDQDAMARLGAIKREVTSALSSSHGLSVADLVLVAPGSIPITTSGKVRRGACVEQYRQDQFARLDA

HEK293 [2] = assay: NOD1 signaling inhibitors, primary screen, cell-based, luminescence, uHTS (AID 1578); type: functional; settings: Homo sapiens
[3] = tested on: Streptococcus sp. 'group A'; assay: growth inhibition of control SK(-) GAS strain, dose response, counter-screen for streptokinase expression inhibitor project, luminescence, kanamycin, BacTiterGlo, confirmation (AID 1900); type: functional, organism-based; settings: read-out: EC50
HEK293 [4] = assay: cells; type: functional, cell-based; settings: Homo sapiens
Streptokinase A = target: T2, Streptokinase A (Streptococcus pyogenes serotype M1, UniProt P10520); assay: S. pyogenes streptokinase expression inhibitors, potency, dose response, plasminogen activation absorbance, OD405 (AID 1914); type: functional, Streptococcus pyogenes M1 GAS;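 also: secreted streptokinase activity via plasminogen activation per viability signal from cell pellet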
T2 sequence (P10520 whole entry): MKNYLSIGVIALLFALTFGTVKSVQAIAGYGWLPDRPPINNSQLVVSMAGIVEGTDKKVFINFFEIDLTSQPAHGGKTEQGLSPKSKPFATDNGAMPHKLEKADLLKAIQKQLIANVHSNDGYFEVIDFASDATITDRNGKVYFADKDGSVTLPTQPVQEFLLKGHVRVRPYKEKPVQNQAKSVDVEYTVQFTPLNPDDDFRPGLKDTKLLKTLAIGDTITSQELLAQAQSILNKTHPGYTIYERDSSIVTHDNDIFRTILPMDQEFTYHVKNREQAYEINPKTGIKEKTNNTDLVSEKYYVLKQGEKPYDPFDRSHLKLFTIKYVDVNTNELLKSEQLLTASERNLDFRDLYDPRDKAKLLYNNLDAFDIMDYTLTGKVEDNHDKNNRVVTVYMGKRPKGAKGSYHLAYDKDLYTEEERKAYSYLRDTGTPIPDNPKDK

HEK293 [5] = assay: cells; type: functional, cell-based; settings: Homo sapiens; remark: listed apart in the source
HEK293 [6] = assay: NOD2 signaling inhibitors in MDP-stimulated cells, cell-based, uHTS, luminescence (AID 2001); type: functional; settings: Homo sapiens
Streptococcus = assay: Group A Streptococcus viability loss, dose response, counter-screen for streptokinase expression inhibitor project, luminescence, BacTiterGlo (AID 1915); type: functional, organism-based;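 also: potency for reduction of bacterial viability or growth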
INS1 = assay: beta cell apoptosis inhibitors, cytokine rescue, dose response, luminescence, retest (AID 449756); type: functional, cell-based; settings: Rattus norvegicus;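 also: cell death triggered by IL-1 beta plus TNF-alpha plus IFN-gamma mixture; protective hits raise ATP signal compared with cytokine alone wells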
[7] = miR-122 activators in hepatoma reporter cells, dose response, cell-based, Huh7 psiCHECK-miR122, Renilla luciferase, cherry-picked (AID 651956); type: functional;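 also: huh7 hepatoma cells stably carrying a psiCHECK-2 miR-122 sensor plasmid; renilla luciferase signal reporting endogenous miR-122 activity after 48 h compound exposure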
[8] = inhibitors of HIV Env-driven cell fusion, dose response, cherry-pick (AID 652057); type: functional, cell-based
[9] = CEM21 lymphoblast cell cytotoxicity, dose response, cytotoxicity control for viral fusion inhibitor project, CellTiter-Glo luminescence, cherry-picked (AID 652042); type: functional, cell-based;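 also: potency for signal decrease meaning cytotoxicity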
[10] = ZM109 Env clade C HIV-1 fusion inhibitors, dose response, HeLa effector, CEM target cells, luciferase, cherry-pick (AID 652058); type: functional, cell-based
[11] = off-target signal loss in HeLa-CEM21 co-culture – HeLa F-luc CTL cells, cherry-picked, counter-screen for HIV-1 Env fusion inhibitor project, dose response (AID 652040); type: functional, cell-based;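 also: potency for signal decrease marking cytotoxic or nonspecific inhibition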
[12] = inhibitors of clade B AD8 Env fusion, dose response, cell-based, cherry-pick (AID 652062); type: functional;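 also: luciferase signal from cell-cell fusion driven by HIV-1 clade B AD8 Env; potency is for inhibitors of fusion seen as a drop in luminescence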
[13] = HEK293T cytotoxicity, dose response, cytotoxicity control for miR-122 modulator project, cell-based, inhibitor set, cherry-pick, set 2 (AID 720697); type: functional
[14] = HEK293T cytotoxicity, dose response, cytotoxicity control for miR-122 modulator project, cell-based, activator set, cherry-pick (AID 720690); type: functional;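 also: HEK293T human cells scored for general mammalian cytotoxicity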
Albumin = Albumin (Bos taurus, UniProt P02769); assay: Counterscreen for inhibitors of T-cell receptor (TCR)-CD3 interaction: Fluorescence-based biochemical high throughput dose response assay to identify inhibitors of T-cell receptor (TCR)-CD3 interaction using a TAMRA-labeled BSA probe.; type: functional
[15] = target: SWI/SNF-related matrix-associated actin-dependent regulator of chromatin subfamily A member 2 (Homo sapiens, UniProt P51531); assay: Luminescence-based cell-based high throughput dose response assay to identify activators of the function of SWI/SNF related, matrix associated, actin dependent regulator of chromatin, subfamily a, member 2 (SMARCA2, BRM).; type: functional
[16] = Counterscreen for activators of the function of SWI/SNF related, matrix associated, actin dependent regulator of chromatin, subfamily a, member 2 (SMARCA2, BRM): Luminescence-based cell-based high throughput dose response assay to identify non-selective compounds using the VP16 reporter assay.; type: functional
cells = type: functional, cell-based
[17] = target: T3, Nuclear receptor subfamily 0 group B member 1 (Homo sapiens, UniProt P51843); type: functional, cell-based;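 also: HEK293T cells transfected with SF-1 and DAX-1 plus StAR promoter luciferase reporter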
T3 sequence (P51843 whole entry): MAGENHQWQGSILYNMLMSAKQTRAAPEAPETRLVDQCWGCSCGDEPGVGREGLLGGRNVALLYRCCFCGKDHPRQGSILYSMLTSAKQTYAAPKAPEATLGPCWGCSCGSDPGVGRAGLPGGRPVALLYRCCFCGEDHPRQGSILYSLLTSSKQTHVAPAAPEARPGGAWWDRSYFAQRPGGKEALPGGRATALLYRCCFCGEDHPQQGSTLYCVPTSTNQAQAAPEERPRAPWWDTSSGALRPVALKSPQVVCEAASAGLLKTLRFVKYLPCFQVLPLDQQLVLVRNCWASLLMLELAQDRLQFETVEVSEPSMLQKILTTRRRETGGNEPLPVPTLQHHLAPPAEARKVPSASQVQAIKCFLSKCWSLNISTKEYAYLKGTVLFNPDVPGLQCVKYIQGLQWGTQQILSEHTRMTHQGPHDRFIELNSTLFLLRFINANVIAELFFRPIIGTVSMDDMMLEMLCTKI

[18] = P. falciparum Dd2 growth inhibitors, dose response, SYBR Green, cherry-picked samples (AID 1159567); type: functional, cell-based
[19] = HepG2 cell cytotoxicity, dose response, cytotoxicity control, cherry-picked samples (AID 1159577); type: functional, cell-based
[20] = NIH-3T3 fibroblast cytotoxicity, dose response, cytotoxicity control, cell-based, fluorescence, Alamar Blue, secondary assay (AID 2327); type: functional;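 also: NIH-3T3 mouse fibroblasts cultured with fluconazole at 8 µg/mL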
[21] = C. albicans growth with fluconazole, confirmation, fluorescence, retest (AID 2467); type: functional, cell-based
[22] = target: DNA (cytosine-5)-methyltransferase 1 (Homo sapiens, UniProt P26358); assay: DNMT1 methyltransferase inhibitors, confirmation, biochemical, fluorescent molecular beacon (AID 602386); type: functional
DNA (cytosine-5)-methyltransferase 1, sequence (P26358 whole entry): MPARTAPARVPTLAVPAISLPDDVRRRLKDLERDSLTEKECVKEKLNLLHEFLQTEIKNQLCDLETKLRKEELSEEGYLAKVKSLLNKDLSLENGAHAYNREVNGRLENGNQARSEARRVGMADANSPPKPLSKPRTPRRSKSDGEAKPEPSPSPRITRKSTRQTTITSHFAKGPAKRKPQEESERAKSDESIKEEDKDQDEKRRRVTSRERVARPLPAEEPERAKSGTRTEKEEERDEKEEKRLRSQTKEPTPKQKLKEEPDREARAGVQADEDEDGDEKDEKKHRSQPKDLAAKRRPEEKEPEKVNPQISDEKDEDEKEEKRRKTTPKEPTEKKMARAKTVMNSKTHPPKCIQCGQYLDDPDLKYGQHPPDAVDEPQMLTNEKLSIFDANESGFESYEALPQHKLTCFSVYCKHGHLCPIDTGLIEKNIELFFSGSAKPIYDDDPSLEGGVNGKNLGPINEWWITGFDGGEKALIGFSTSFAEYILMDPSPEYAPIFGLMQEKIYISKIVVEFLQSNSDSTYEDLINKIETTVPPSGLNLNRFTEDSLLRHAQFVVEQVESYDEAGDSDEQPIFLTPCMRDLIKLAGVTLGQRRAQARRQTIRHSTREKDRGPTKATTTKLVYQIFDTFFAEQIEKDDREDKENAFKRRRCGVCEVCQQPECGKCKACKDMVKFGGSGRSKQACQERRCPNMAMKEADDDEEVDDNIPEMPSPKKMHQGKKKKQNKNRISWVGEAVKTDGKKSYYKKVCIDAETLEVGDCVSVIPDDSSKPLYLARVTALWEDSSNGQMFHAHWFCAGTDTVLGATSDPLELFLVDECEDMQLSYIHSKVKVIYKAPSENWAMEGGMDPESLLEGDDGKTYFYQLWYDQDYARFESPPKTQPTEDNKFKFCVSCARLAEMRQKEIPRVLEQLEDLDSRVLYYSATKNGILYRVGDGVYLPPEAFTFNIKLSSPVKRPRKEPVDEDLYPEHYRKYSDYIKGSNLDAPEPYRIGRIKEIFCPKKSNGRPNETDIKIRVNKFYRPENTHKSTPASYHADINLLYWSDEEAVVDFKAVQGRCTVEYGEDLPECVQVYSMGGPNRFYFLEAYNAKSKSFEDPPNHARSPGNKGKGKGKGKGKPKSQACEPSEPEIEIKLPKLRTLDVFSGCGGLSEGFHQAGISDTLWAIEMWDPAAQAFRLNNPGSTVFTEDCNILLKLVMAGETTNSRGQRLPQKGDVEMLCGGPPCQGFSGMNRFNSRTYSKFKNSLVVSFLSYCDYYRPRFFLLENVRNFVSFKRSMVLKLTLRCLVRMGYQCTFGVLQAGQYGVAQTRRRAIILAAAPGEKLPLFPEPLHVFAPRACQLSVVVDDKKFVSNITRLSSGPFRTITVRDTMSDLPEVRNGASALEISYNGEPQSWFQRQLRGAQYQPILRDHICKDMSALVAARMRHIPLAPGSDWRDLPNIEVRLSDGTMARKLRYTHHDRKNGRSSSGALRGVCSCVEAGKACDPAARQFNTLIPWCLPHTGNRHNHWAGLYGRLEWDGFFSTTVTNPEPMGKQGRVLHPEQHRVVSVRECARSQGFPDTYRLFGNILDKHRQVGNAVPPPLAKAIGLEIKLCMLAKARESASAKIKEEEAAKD

Albumin, sequence (P02769 whole entry): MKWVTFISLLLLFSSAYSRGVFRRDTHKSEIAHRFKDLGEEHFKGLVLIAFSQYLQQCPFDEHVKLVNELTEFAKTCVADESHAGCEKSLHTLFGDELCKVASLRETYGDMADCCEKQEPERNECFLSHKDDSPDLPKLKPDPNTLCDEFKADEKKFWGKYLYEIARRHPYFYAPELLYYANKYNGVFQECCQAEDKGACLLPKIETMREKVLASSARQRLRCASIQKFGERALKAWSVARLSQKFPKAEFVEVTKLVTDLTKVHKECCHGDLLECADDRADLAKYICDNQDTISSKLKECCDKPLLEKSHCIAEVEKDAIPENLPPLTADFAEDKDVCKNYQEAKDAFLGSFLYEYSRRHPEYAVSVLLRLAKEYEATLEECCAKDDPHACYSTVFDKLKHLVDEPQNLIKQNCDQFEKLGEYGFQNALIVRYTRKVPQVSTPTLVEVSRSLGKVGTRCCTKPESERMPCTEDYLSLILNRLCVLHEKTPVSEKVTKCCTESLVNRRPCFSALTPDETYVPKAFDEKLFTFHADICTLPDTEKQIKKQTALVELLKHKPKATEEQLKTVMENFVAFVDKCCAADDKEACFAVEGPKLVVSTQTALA
SWI/SNF-related matrix-associated actin-dependent regulator of chromatin subfamily A member 2, sequence (P51531 whole entry): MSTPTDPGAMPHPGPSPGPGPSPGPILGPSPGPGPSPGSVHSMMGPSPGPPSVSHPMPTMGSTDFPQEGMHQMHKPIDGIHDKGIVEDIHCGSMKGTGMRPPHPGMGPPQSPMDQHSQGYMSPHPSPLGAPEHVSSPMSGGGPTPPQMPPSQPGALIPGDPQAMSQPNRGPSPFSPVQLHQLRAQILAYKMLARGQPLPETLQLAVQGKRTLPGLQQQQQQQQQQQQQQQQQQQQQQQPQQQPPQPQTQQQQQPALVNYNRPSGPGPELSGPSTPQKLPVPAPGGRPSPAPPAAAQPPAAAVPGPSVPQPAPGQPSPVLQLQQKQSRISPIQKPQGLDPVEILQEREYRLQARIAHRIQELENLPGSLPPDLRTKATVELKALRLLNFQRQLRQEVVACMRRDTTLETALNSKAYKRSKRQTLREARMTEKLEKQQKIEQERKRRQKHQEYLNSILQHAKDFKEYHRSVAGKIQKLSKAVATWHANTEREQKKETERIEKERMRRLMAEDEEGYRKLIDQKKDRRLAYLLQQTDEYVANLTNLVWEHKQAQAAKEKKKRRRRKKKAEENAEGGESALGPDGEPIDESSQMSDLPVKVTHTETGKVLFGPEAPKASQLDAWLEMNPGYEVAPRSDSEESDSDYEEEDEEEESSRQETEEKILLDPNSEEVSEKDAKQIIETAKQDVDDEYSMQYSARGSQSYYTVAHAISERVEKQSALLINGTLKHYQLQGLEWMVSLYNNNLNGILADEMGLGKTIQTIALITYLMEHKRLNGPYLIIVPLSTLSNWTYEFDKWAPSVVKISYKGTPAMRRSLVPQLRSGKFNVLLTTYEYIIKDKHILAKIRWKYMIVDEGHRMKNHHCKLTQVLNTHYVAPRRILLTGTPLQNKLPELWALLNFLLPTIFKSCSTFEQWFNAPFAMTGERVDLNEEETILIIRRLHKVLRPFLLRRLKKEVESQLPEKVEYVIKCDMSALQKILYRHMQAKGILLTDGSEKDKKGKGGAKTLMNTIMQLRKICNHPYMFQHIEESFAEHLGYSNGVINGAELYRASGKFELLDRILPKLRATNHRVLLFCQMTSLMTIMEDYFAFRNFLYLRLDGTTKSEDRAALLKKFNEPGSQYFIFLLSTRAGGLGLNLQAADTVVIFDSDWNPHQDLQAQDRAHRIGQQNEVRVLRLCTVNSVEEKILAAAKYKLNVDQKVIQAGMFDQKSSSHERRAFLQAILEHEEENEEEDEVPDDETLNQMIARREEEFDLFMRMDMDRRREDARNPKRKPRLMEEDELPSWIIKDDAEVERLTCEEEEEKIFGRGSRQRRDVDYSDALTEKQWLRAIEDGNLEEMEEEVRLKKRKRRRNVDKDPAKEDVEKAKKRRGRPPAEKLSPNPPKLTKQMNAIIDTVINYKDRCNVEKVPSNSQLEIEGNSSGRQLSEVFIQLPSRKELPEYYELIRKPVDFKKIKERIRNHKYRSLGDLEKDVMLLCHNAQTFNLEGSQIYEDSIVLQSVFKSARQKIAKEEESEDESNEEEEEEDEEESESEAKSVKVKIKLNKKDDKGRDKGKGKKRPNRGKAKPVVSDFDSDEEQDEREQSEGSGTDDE

Q: With `O=C(CN1C(=O)S/C(=C\c2cccs2)C1=O)Nc1ccc(O)cc1C(=O)O` as the compound, how does the AC50 [1] read?
A: 94.3 µM (active)

Q: For `O=C(Nc1ccc(OC(F)F)cc1)Nc1cccc(C(F)(F)F)c1`, which EC50 (HEK293 [2]) is on record?
A: 8.15 µM (active)

Q: And the EC50 [3]?
A: 13.3 µM (active)

Q: What about the IC50 (HEK293 [4]) of the same compound?
A: 3.04 µM (active)

Q: What about the EC50 (Streptokinase A) of the same compound?
A: > 150 µM (not active)

Q: What about the IC50 (HEK293 [5]) of the same compound?
A: 6.17 µM (active)

Q: What about the IC50 (HEK293 [6]) of the same compound?
A: 4.14 µM (inactive)

Q: And the EC50 (Streptococcus)?
A: 44.9 µM (active)

Q: And the AC50 (INS1)?
A: 6.07 µM (active)

Q: And the AC50 [7]?
A: 32 µM (active)

Q: And the AC50 [8]?
A: 5.03 µM (active)

Q: What about the AC50 [9] of the same compound?
A: 16.1 µM (active)

Q: And the AC50 [10]?
A: 5.35 µM (active)

Q: And the AC50 [11]?
A: 10.5 µM (active)

Q: And the AC50 [12]?
A: 11 µM (active)

Q: What about the AC50 [13] of the same compound?
A: 10.9 µM (active)

Q: And the AC50 [14]?
A: 6.99 µM (active)

Q: Which results are given for `Cc1ccc2c(C)nc(Nc3nc(O)cc(CSc4nnnn4-c4ccccc4)n3)nc2c1`?
A: AC50 [8]: 20.5 µM (active); AC50 [9]: 25.2 µM (active); AC50 [10]: 12.5 µM (active); AC50 [11]: 25.3 µM (active)

Q: For `O=C(NNC(=S)NC(=O)c1cccnc1)c1ccc(F)cc1`, which IC50 (Albumin) is on record?
A: > 94.1 µM (inactive)

Q: For `COc1ccccc1NS(=O)(=O)c1cc(NC(=O)/C=C/c2cccs2)ccc1N1CCOCC1`, which EC50 [15] is on record?
A: > 91.2 µM (inactive)

Q: And the EC50 [16]?
A: > 91.2 µM (inactive)

Q: With `COc1ccc(C(=O)NCCS(=O)(=O)NCCc2ccccc2)cc1` as the compound, how does the IC50 (cells) read?
A: > 67.5 µM (inactive)

Q: What about the IC50 [17] of the same compound?
A: > 67.5 µM (inactive)

Q: For `CCOC(=O)NC1CCc2cc(OC)c(OC)c(OC)c2-c2ccc(SC)c(=O)cc21` (centres undefined), which IC50 (cells) is on record?
A: > 67.5 µM (inactive)

Q: What about the IC50 [17] of the same compound?
A: > 0.0309 µM (active)

Q: For `Cc1ccc(S(=O)(=O)N2[C@@H](c3cccc(Cl)c3)C(C(=O)O)=CC[C@H]2c2cccc(C)c2)cc1`, which AC50 [1] is on record?
A: 48.3 µM (active)

Q: For `C[C@H](CO)N1C[C@H](C)[C@H](CN(C)S(=O)(=O)c2ccccc2)Oc2ccc(NC(=O)NC3CCCCC3)cc2CC1=O`, which AC50 [8] is on record?
A: 1.59 µM (active)

Q: And the AC50 [9]?
A: 46.9 µM (active)

Q: What about the AC50 [10] of the same compound?
A: 0.98 µM (active)

Q: What about the AC50 [11] of the same compound?
A: 2.01 µM (active)

Q: What about the AC50 [12] of the same compound?
A: 4.13 µM (active)

Q: With `Cc1cccc(-c2ccc([C@@H]3[C@H](CO)N4CCCCN(CCC(F)(F)F)C[C@@H]34)cc2)c1` as the compound, how does the AC50 [7] read?
A: 14.9 µM (active)

Q: What about the AC50 [13] of the same compound?
A: 28.8 µM (active)

Q: And the AC50 [14]?
A: 17.7 µM (active)

Q: And the AC50 [18]?
A: 0.978 µM (active)

Q: What about the AC50 [19] of the same compound?
A: 10.7 µM (active)

Q: For `COc1cccc(C(=O)NNC(=O)c2ccc3ccccc3c2O)c1`, which EC50 [20] is on record?
A: > 150 µM (inconclusive)

Q: What about the EC50 [21] of the same compound?
A: > 38 µM (not active)

Q: And the IC50 (Albumin)?
A: > 94.1 µM (inactive)

Q: Which IC50 [22] does the source give for `COc1cc2cc(Oc3ccc4ccc(=O)oc4c3)c(=O)oc2cc1O[C@@H]1O[C@H](CO)[C@@H](O)[C@H](O)[C@H]1O` [DAPHNORIN] here?
A: 7.56 µM (active)

Q: And the AC50 [1]?
A: 87.2 µM (active)

— ChEMBL document CHEMBL1201862, “PubChem BioAssay data set” (2004)
